From publication PMC7403827 (Clinical and Translational Medicine, 2020)

Tested on: EGFR‐mutant advanced non‐squamous NSCLC
Assay: Antitumor response (RECIST 1.1), PFS and OS
Conditions: for median PFS: Kaplan‐Meier
[1] = Apatinib Dose Cohort 250mg + gefitinib 250 mg, evaluable patients
[2] = Apatinib Dose Cohort 500mg + gefitinib 250 mg, evaluable patients
[3] = Total, both apatinib dose cohorts (n = 11)

Text: Other endpoints included objective response rate (ORR) and disease control rate (DCR), progression‐free survival (PFS), and overall survival (OS). […] Combination therapy was continued until the status of progression disease, unbearable toxicity, withdrawal of informed consent form or discontinuation that was at the discretion of the principal investigator (see Supporting Information).
Adverse events (AEs) in line with the version 4.0 of National Cancer Institute's Common Terminology Criteria for Adverse Events (CTCAE 4.0) were evaluated by the investigators. AEs were strictly recorded from the timepoint that ICF was obtained to 28 days after the finish of study. Imaging examinations was conducted before treatment, at the finish of the first follow‐up, and every other two follow‐ups afterward by taking the same examinations. Response of tumor was assessed based on the RECIST 1.1 guidelines. Primary assessment for antitumor response: (a) ORR, defining as the proportion of participants that achieved a complete response (CR) or a partial response (PR); (b) disease control rate (DCR), defining as the proportion of participants reached a status of CR or PR or stable disease (SD). After 4 weeks, best overall response (BOR) was confirmed.
Patients in the ITT analysis who had complete safety records were pooled in the safety set (SS). The qualitative and quantitative data were summarized with the descriptive statistics. Efficacy was also assessed in the ITT analysis. The Kaplan‐Meier method described PFS and OS. Survival distribution differences were evaluated by the log‐rank test. […] Fisher's exact test compared the response rate in the various subgroups. Two‐sided tests were applied. […] All statistical analyses and graphs were made by the Statistical Package for Social Sciences (SPSS) 23.0 and GraphPad Prism 7.

For N#CC1(c2ccc(NC(=O)c3cccnc3NCc3ccncc3)cc2)CCCC1 [Apatinib], the “CR, patients” value [1] was 0, the “Disease Control CR+PR+SD” value [1] was 6 (100.0) n (%) and the “Objective Response CR+PR” value [1] was 5 (83.3) n (%). The “PD, patients” value [1] was 0, the “PR, patients” value [1] was 5 and the “CR, patients” value [2] was 0. For the same compound, the “Disease Control CR+PR+SD” value [2] was 4 (80.0) n (%), the “Objective Response CR+PR” value [2] was 4 (80.0) n (%) and the “PD, patients” value [2] was 1. For the same compound, the “PR, patients” value [2] was 4, the “median PFS” value (Cohort A (apatinib 500 mg + gefitinib 250 mg)) was 19.2 months and the ORR (Cohort A: apatinib 500 mg + gefitinib 250 mg (4/5)) was 80%. The “median PFS” value (Cohort B (apatinib 250 mg + gefitinib 250 mg)) was 13.4 months, the ORR (Cohort B: apatinib 250 mg + gefitinib 250 mg (5/6)) was 83.3% and the “CR, patients” value [3] was 0. For the same compound, the “Disease Control CR+PR+SD” value [3] was 10 (90.9) n (%), the “Objective Response CR+PR” value [3] was 9 (81.8) n (%) and the “PD, patients” value [3] was 1. The “PR, patients” value [3] was 9, the DCR (apatinib 250 mg group + gefitinib 250 mg (6/6)) was 100% and the DCR (apatinib 500 mg group + gefitinib 250 mg (4/5)) was 80.0%.
